“Also recorded” adds a separate entry of the source. No end group written: not given here.
Experiments:
[1] = system: sodium channel binding site 3; assay: Ion channel binding properties of birtoxin
[2] = system: Male Swiss-Webster mice; assay: Mouse injection bioassay (intracerebroventricular; also subcutaneous, intraperitoneal); type: in vivo; conditions: for symptoms in injected mice (in words): intracerebroventricular injection, dose not given or as in the words; for symptoms in mice: 7–8 week old male Swiss-Webster mice; for Mouse (IC) high dose / Mouse (IC) low dose: preliminary biological activity
Protocol: (§1) Bioassays: Male Swiss-Webster mice were purchased from Charles River, Inc., and housed at the Animal Housing Facility, UC Davis. Blowfly (Sarcophaga spp.), crickets (Acheta domesticus) and Anole lizards (Anoles caroliensis) were purchased from Carolina Biologicals (Burlington, N.C.). Cotton bollworms (Heliothis virescens) were obtained from USDA/ARS (Stoneville, […].) and reared on artificial diet. Collected fractions were tested on mice by intracerebroventricular injections and by injecting last instar blowfly larvae. Third instar cotton bollworms and adult common house crickets were also used in screening for insecticidal components. Briefly, fractions were concentrated to dryness using a Heto Speed Vac (ATR, Inc. Emeryville, Calif.). Dried samples were resuspended in 10 μl 20 mM ammonium acetate buffer with 1 μg/μl BSA and incubated overnight at 4° C. to insure proper refolding before injection to the test animals. Mice were anesthetized using ethyl ether and intracerebroventricular injections of peptide solutions were executed immediately. […] All symptoms were observed and recorded up to 24 hours post injection. All experiments were carried out in accordance with the guidelines laid down by the National Institutes of Health in the USA regarding the care and use of experimental animals.
Next, the biological activities of Ikitoxin and Birtoxin were compared. Mouse biological activity was evaluated by intracerebroventricular injections of 7–8 week old male Swiss-Webster mice using […] purified toxin.
The biological activities of dortoxin, bestoxin, and ikitoxin were evaluated in blowfly larvae, tobacco budworm larvae, and mice. Blowfly larvae, tobacco budworm larvae were injected with 1 μL of fraction or toxin solution in water. The effects were observed and recorded up to 24 hrs post injection. The toxins to were also injected to mice (swiss-webster male 4–6 week old mice) through an intracerebroventricular route (brain). The mice were anesthetized using ethyl ether then injected with various doses of 5 μL of test solution. The effects were again observed and recorded up to 24 hrs post injection. […] The experiments were terminated after 48 hrs of observation. […] Bestoxin is only two amino acid different from its sister peptide dortoxin. The MALDI determined molecular masses for dortoxin (6643 Da) and bestoxin (6603 Da) also agree with the two amino acid difference of Lys20 in dortoxin to Glu20 in bestoxin and Glu45 in dortoxin to Ser45 in bestoxin.

[3] = system: rat brain synaptosomes; type: binding; conditions: for EC50: read-out: EC50 (effective concentration)
[4] = system: Male Swiss-Webster mice; assay: Mouse injection bioassay (intracerebroventricular; also subcutaneous, intraperitoneal); type: in vivo; conditions: preliminary biological activity
[5] = system: Blowfly (Sarcophaga spp.) larvae; assay: Blowfly larvae injection bioassay; type: in vivo; conditions: for activity against blowfly (Sarcophaga) larvae (in words): injection into larvae
Protocol: Uctoxin HPLC Purification: Uctoxin was purified through three steps of RP-HPLC guided by insect and mouse bioassays. Initially the venom of P.transvaalicus was resuspended in solvent A (2% acetonitrile 98% water 0.1% TFA) and ran multiple times through a C4 magic bullet column hooked up to a Magic 2002 microbore HPLC System with a linear gradient of 2 to 65% solvent B (98% acetonitrile 2% water 0.1% TFA) in 15 minutes at a flow rate of 300 μL/min. as described above for ikitoxon. UV trace at 214 and 280 nm was monitored. Fraction P3 from the first column was collected, several runs were pooled and freeze dried. This fraction was run on a Michrom C18 microbore column on the same system with a linear gradient of 2 to 65% solvent B in 30 minutes at a flow rate of 50 μL/min. Peak 2 from the C18 column was further purified by running it through a microbore phenyl column on the same system with the same gradient conditions. Purity was confirmed using MALDI-TOF MS. Biological activity of peptide was monitored by intracerebroventricular injection of mice and also injections of blowfly and tobacco budworm larvae. For bioassays uctoxin was purified and resuspended in 20 mM ammonium acetate buffer with 1 ug/ul BSA. (The 50% effective doses (ED50) were determined according to Reed and Muench (Reed L. J., Muench, S. 1938 Am.J.Hyg 27, 493–497.))
as §1
The biological activities of dortoxin, bestoxin, and ikitoxin were evaluated in blowfly larvae, tobacco budworm larvae, and mice. Blowfly larvae, tobacco budworm larvae were injected with 1 μL of fraction or toxin solution in water. The effects were observed and recorded up to 24 hrs post injection. The toxins to were also injected to mice (swiss-webster male 4–6 week old mice) through an intracerebroventricular route (brain). The mice were anesthetized using ethyl ether then injected with various doses of 5 μL of test solution. The effects were again observed and recorded up to 24 hrs post injection. […] The MALDI determined molecular masses for dortoxin (6643 Da) and bestoxin (6603 Da) also agree with the two amino acid difference of Lys20 in dortoxin to Glu20 in bestoxin and Glu45 in dortoxin to Ser45 in bestoxin.

[6] = cited from earlier work
[7] = system: Insect Lepidoptera; assay: Parakinin in vivo assay on Lepidoptera; conditions: preliminary biological activity
From the text: The preliminary biological activity of parakinins I investigated by in vivo assays conducted on insects and mice. Parakinins are active and potent against both invertebrates and vertebrates. These in vivo effects implicate potential pharmaceutical use and development. Due to the small nature of parakinins analogs of these peptides can be synthesized and tested very rapidly.

[8] = intracerebroventricular, 0.2–1 mg purified toxin

birtoxin (ADVPGNYPLDKDGNTYKCFLLGGNEECLNVCKLHGVQYGYCYASKCWCEYLEDDKDVS; not fully specified; ends and bridges not checked)
sodium channel binding site and mode of action [1]: binds to sodium channel binding site 3 and blocks the sodium channel by prolonging the inactivation | effect of injection in mice ([2]; 1 μg of pure birtoxin): induced severe neurotoxic symptoms in mice up to 24 hours but was not lethal | effect of injection in mice ([2]; 2 μg of pure peptide): lethal | symptoms in injected mice (in words) [2]: induced serious symptoms, including tremors, which lasted up to 24 hours post injection at submicrogram amounts | symptoms in mice [2, 8]: convulsions, tremors, increased heart rate and finally death | lethality to mice (summary statement) ([2]; mouse, in vivo): lethal to mice at low microgram quantities | enhancement of the binding of [3H] BTX [3]: about 4.32 fold | EC50 [3]: ~5 nM

parakinin-2 (PFVVPPFR; listed as Parabuthus transvaalicus)
Mouse (SC) [4]: Hyperactivity | Mouse (IC) high dose [2]: Paralysis | Mouse (IC) low dose [2]: Hyperventilation,; also recorded: Hyperactivity

uctoxin
activity against blowfly (Sarcophaga) larvae (in words) [5]: bioactivity only in the case of the first major peak | activity against blowfly (Sarcophaga) larvae (in words) ([5]; listed as Uctoxin): immediate flaccid paralysis | ED50 ([5]; last instar Sarcophaga larvae, flaccid paralysis): about 70 ng/100 mg larvae | symptoms in injected mice (in words) [2]: consistent contraction and tremors | time to lethality ([2]; intracerebroventricular, 0.5 μg of uctoxin): ≤ 30 min | enhancement of the binding of [3H] BTX [3]: 2 fold | EC50 [3]: ~60 nM

dortoxin (ADVPGNYPLDKDGNTYTCLKLGENKDCQKVCKLHGVQYGYCYAFECWCKEYLDDKDSV; listed as Parabuthus transvaalicus)
symptoms in injected mice (in words) [2]: convulsions, tremors and death | LD99 ([2]; intracerebroventricular, Swiss-Webster male 4–6 week old mice): < 0.5 μg/20 gr of mouse

ikitoxin (ADVPGNYPLDKDGNTYKCFLLGENEECLNVCKLHGVQYGYCYASKCWCEYLEDDKDVS; listed as Parabuthus transvaalicus)
activity against blowfly (Sarcophaga) larvae (in words) [5]: not active against Sarcophaga | symptoms in injected mice (in words) [2]: induced periodic unprovoked jumps in injected mice | time course of the symptom [2, 8]: Within three hours of injection the symptom gradually faded | initial frequency of unprovoked jumps ([2]; intracerebroventricular, 0.2–1 mg purified toxin, for 20 minutes): about 3 jumps per minute | symptoms in mice [2, 8]: periodic unprovoked jumps | lethality during the observation period ([2]; intracerebroventricular, range of injected doses 0.2–1 mg): did not show lethality

RPPGFSPFR [bradykinin]
destroyed on a single passage through the pulmonary circulation ([6]; anesthetized rat): 98%–99% | half life in the systemic circulation ([6]; rat, in vivo): less than 30 seconds

bestoxin (ADVPGNYPLDKDGNTYTCLELGENKDCQKVCKLHGVQYGYCYAFSCWCKEYLDDKDSV; listed as Parabuthus transvaalicus)
sensitivity to stimuli of injected mice ([2]; intracerebroventricular): hypersensitive to stimuli | state of the mice at the end of 48 hrs ([2]; intracerebroventricular): still live, dessicated, and exhausted but still continued to roll | symptoms in injected mice (in words) [2]: contract, twist and roll around itself indefinitely

parakinin-1 (PFIVPPFR; listed as Parabuthus transvaalicus)
Insect blowfly ([5]; preliminary biological activity): Contractive paralysis | Mouse (SC) [4]: Hyperventilation,; also recorded: Hyperactivity | Mouse (IC) high dose [2]: Paralysis | Mouse (IC) low dose [2]: Hyperventilation,; also recorded: Hyperactivity | Insect Lepidoptera [7]: Contractive paralysis
